From the supplement of paper PMC10307832

Key:
Experiment in all cases: relative viability (nuclei count vs DMSO), 5 days (fraction); higher = more cells survive
201T = test system: 201T
Method in brief: (§1)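 A single step with final 0.05% Triton X-100, 1% formaldehyde and 1 ug/ml Hoechst fixed the cells and stained nuclei 5 days after treatment. Lung cancer cell lines in 1536-well plates had been treated by pin tool the day after seeding with one drug alone or a fixed anchor-drug dose plus five library-drug doses (not always all listed) in √10 steps, and nuclei were counted on 4× images. Relative viability is the ratio of nuclei in treated wells to nuclei in vehicle wells, taken as the median of duplicate plates.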

ABC-1 = test system: ABC-1
Method in brief: as §1

EMC-BAC-2 = test system: EMC-BAC-2
Method in brief: as §1

EPLC-272H = test system: EPLC-272H
Method in brief: as §1

HCC-78 = test system: HCC-78
Method in brief: as §1

LCLC-103H = test system: LCLC-103H
Method in brief: as §1

LOU-NH91 = test system: LOU-NH91
Method in brief: as §1

NCI-H1437 = test system: NCI-H1437
Method in brief: as §1

NCI-H1651 = test system: NCI-H1651
Method in brief: as §1

NCI-H1734 = test system: NCI-H1734
Method in brief: as §1

NCI-H1792 = test system: NCI-H1792
Method in brief: as §1

NCI-H1915 = test system: NCI-H1915
Method in brief: as §1

NCI-H1975 = test system: NCI-H1975
Method in brief: as §1

NCI-H2023 = test system: NCI-H2023
Method in brief: as §1

NCI-H23 = test system: NCI-H23
Method in brief: as §1

NCI-H2405 = test system: NCI-H2405
Method in brief: as §1

NCI-H647 = test system: NCI-H647
Method in brief: as §1

NCI-H661 = test system: NCI-H661
Method in brief: as §1

RERF-LC-KJ = test system: RERF-LC-KJ
Method in brief: as §1

SK-LU-1 = test system: SK-LU-1
Method in brief: as §1

UMC-11 = test system: UMC-11
Method in brief: as §1

Question: Which results are given for `O=c1[nH]c2ccccc2n1C1CCN(CCCC(c2ccc(F)cc2)c2ccc(F)cc2)CC1` [Pimozide] + C[C@@H](Oc1cc(-c2cnn(C3CCNCC3)c2)cnc1N)c1c(Cl)ccc(F)c1Cl [Crizotinib] (partner 1 µM)?
Answer: relative viability (201T; first compound 0.08 µM): 0.995; relative viability (201T; first compound 0.253 µM): 1; relative viability (201T; first compound 0.8 µM): 1.03; relative viability (201T; first compound 2.53 µM): 1.05; relative viability (201T; first compound 8 µM): 0.964; relative viability (ABC-1; first compound 0.08 µM): 1.03; relative viability (ABC-1; first compound 0.253 µM): 0.604; relative viability (ABC-1; first compound 0.8 µM): 0.783; relative viability (ABC-1; first compound 2.53 µM): 0.755; relative viability (ABC-1; first compound 8 µM): 0.606; relative viability (EMC-BAC-2; first compound 0.08 µM): 0.752; relative viability (EMC-BAC-2; first compound 0.253 µM): 0.79; relative viability (EMC-BAC-2; first compound 0.8 µM): 0.691; relative viability (EMC-BAC-2; first compound 2.53 µM): 0.616; relative viability (EMC-BAC-2; first compound 8 µM): 0.691; relative viability (EPLC-272H; first compound 0.08 µM): 0.789; relative viability (EPLC-272H; first compound 0.253 µM): 0.686; relative viability (EPLC-272H; first compound 0.8 µM): 0.908; relative viability (EPLC-272H; first compound 2.53 µM): 0.904; relative viability (EPLC-272H; first compound 8 µM): 0.803; relative viability (HCC-78; first compound 0.08 µM): 0.263; relative viability (HCC-78; first compound 0.253 µM): 0.339; relative viability (HCC-78; first compound 0.8 µM): 0.333; relative viability (HCC-78; first compound 2.53 µM): 0.354; relative viability (HCC-78; first compound 8 µM): 0.315; relative viability (LCLC-103H; first compound 0.08 µM): 1; relative viability (LCLC-103H; first compound 0.253 µM): 0.967; relative viability (LCLC-103H; first compound 0.8 µM): 1.02; relative viability (LCLC-103H; first compound 2.53 µM): 1.07; relative viability (LCLC-103H; first compound 8 µM): 1.12; relative viability (LOU-NH91; first compound 0.08 µM): 0.52; relative viability (LOU-NH91; first compound 0.253 µM): 0.733; relative viability (LOU-NH91; first compound 0.8 µM): 0.73; relative viability (LOU-NH91; first compound 2.53 µM): 0.759; relative viability (LOU-NH91; first compound 8 µM): 0.581; relative viability (NCI-H1437; first compound 0.08 µM): 0.949; relative viability (NCI-H1437; first compound 0.253 µM): 0.878; relative viability (NCI-H1437; first compound 0.8 µM): 0.898; relative viability (NCI-H1437; first compound 2.53 µM): 0.903; relative viability (NCI-H1437; first compound 8 µM): 0.751; relative viability (NCI-H1651; first compound 0.08 µM): 0.801; relative viability (NCI-H1651; first compound 0.8 µM): 0.818; relative viability (NCI-H1651; first compound 2.53 µM): 0.764; relative viability (NCI-H1651; first compound 8 µM): 0.933; relative viability (NCI-H1734; first compound 0.08 µM): 0.646; relative viability (NCI-H1734; first compound 0.253 µM): 0.633; relative viability (NCI-H1734; first compound 0.8 µM): 0.716; relative viability (NCI-H1734; first compound 2.53 µM): 0.609; relative viability (NCI-H1734; first compound 8 µM): 0.722; relative viability (NCI-H1792; first compound 0.08 µM): 0.95; relative viability (NCI-H1792; first compound 0.253 µM): 0.944; relative viability (NCI-H1792; first compound 0.8 µM): 0.937; relative viability (NCI-H1792; first compound 2.53 µM): 0.937; relative viability (NCI-H1792; first compound 8 µM): 0.971; relative viability (NCI-H1915; first compound 0.08 µM): 0.971; relative viability (NCI-H1915; first compound 0.253 µM): 0.863; relative viability (NCI-H1915; first compound 0.8 µM): 0.709; relative viability (NCI-H1915; first compound 2.53 µM): 0.863; relative viability (NCI-H1915; first compound 8 µM): 0.784; relative viability (NCI-H1975; first compound 0.08 µM): 0.919; relative viability (NCI-H1975; first compound 0.253 µM): 1.02; relative viability (NCI-H1975; first compound 0.8 µM): 0.83; relative viability (NCI-H1975; first compound 2.53 µM): 0.882; relative viability (NCI-H1975; first compound 8 µM): 0.73; relative viability (NCI-H2023; first compound 0.08 µM): 0.539; relative viability (NCI-H2023; first compound 0.253 µM): 0.615; relative viability (NCI-H2023; first compound 0.8 µM): 0.742; relative viability (NCI-H2023; first compound 2.53 µM): 0.524; relative viability (NCI-H2023; first compound 8 µM): 0.522; relative viability (NCI-H23; first compound 0.08 µM): 0.625; relative viability (NCI-H23; first compound 0.253 µM): 0.482; relative viability (NCI-H23; first compound 0.8 µM): 0.517; relative viability (NCI-H23; first compound 2.53 µM): 0.573; relative viability (NCI-H23; first compound 8 µM): 0.524; relative viability (NCI-H2405; first compound 0.08 µM): 0.831; relative viability (NCI-H2405; first compound 0.253 µM): 0.814; relative viability (NCI-H2405; first compound 0.8 µM): 0.83; relative viability (NCI-H2405; first compound 2.53 µM): 0.819; relative viability (NCI-H2405; first compound 8 µM): 0.789; relative viability (NCI-H647; first compound 0.08 µM): 1.03; relative viability (NCI-H647; first compound 0.253 µM): 1.04; relative viability (NCI-H647; first compound 0.8 µM): 0.988; relative viability (NCI-H647; first compound 2.53 µM): 0.919; relative viability (NCI-H647; first compound 8 µM): 0.544; relative viability (NCI-H661; first compound 0.08 µM): 0.975; relative viability (NCI-H661; first compound 0.8 µM): 0.921; relative viability (NCI-H661; first compound 2.53 µM): 0.995; relative viability (NCI-H661; first compound 8 µM): 0.962; relative viability (RERF-LC-KJ; first compound 0.08 µM): 0.809; relative viability (RERF-LC-KJ; first compound 0.253 µM): 0.815; relative viability (RERF-LC-KJ; first compound 0.8 µM): 0.764; relative viability (RERF-LC-KJ; first compound 2.53 µM): 0.581; relative viability (RERF-LC-KJ; first compound 8 µM): 0.705; relative viability (SK-LU-1; first compound 0.08 µM): 0.895; relative viability (SK-LU-1; first compound 0.253 µM): 0.792; relative viability (SK-LU-1; first compound 0.8 µM): 0.912; relative viability (SK-LU-1; first compound 2.53 µM): 0.786; relative viability (SK-LU-1; first compound 8 µM): 0.769; relative viability (UMC-11; first compound 0.08 µM): 0.574; relative viability (UMC-11; first compound 0.253 µM): 0.618; relative viability (UMC-11; first compound 0.8 µM): 0.634; relative viability (UMC-11; first compound 2.53 µM): 0.584; relative viability (UMC-11; first compound 8 µM): 0.705
